# Results: US20230051589A1, “COMPOUNDS AND COMPOSITIONS FOR TREATING CONDITIONS ASSOCIATED WITH NLRP ACTIVITY” (Novartis AG, priority 2018, published 2023)
# Tested on: IL-1β production in PMA-differentiated THP-1 cells
# Assay: IL-1β production in PMA-differentiated THP-1 cells stimulated with gramicidin (hTHP-1 assay, 2% fetal bovine serum; Procedures 1-3)
# Format: cell-based, human
# Conditions: Homo sapiens, THP-1, hTHP-1 assay containing 2% fetal bovine serum, Table B2, class symbols; read-out: IC50
# Procedure, shortened: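 IL-1β released into supernatants was read by HTRF after 2 h gramicidin (5 μM) challenge. Before challenge, compounds (3-fold dilutions, top 100 μM, 0.37% DMSO) were given 1 h on THP-1 cells differentiated with PMA (20 ng/ml, 16-18 h) and held in 2% FBS medium.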
row,IC50 [nM],Structure (SMILES)
1,1000 to 5000,"NS(=O)(=NC(=O)Nc1c2c(cc3c1CCC3)CCC2)c1cccc(CN2CCOCC2)c1 (single isomer, unassigned) [Example 550, (R) or (S)-N′-((1,2,3,5,6,7-hexahydro-s-indacen-4-yl)carbamoyl)-3-(morpholinomethyl) benzenesulfonimidamide]"
2,5000 to 30000,"CC(C)(O)c1ncc(S(N)(=O)=NC(=O)Nc2cc3c(c4c2CCC4=O)CCC3)s1 (single isomer, unassigned) [Example 565, (R) or (S)-2-(2-hydroxypropan-2-yl)-N′-((1-oxo-1,2,3,6,7,8-hexahydro-as-indacen-4-yl)carbamoyl) thiazole-5-sulfonimidamide]"

# Same assay, conditions: Homo sapiens, THP-1, hTHP-1 assay containing 2% fetal bovine serum, Table B2, given as bound; read-out: IC50
row,IC50 [nM],Structure (SMILES)
1,> 30000,"NS(=O)(=NC(=O)Nc1c2c(cc3c1CCC3)CCC2)c1cccc(CN2CCOCC2)c1 (single isomer, unassigned) [Example 551, (S) or (R)-N′-((1,2,3,5,6,7-hexahydro-s-indacen-4-yl)carbamoyl)-3-(morpholinomethyl) benzenesulfonimidamide]"
2,> 30000,"CC(C)(O)c1ncc(S(N)(=O)=NC(=O)Nc2cc3c(c4c2CCC4=O)CCC3)s1 (single isomer, unassigned) [Example 564, (S) or (R)-2-(2-hydroxypropan-2-yl)-N′-((1-oxo-1,2,3,6,7,8-hexahydro-as-indacen-4-yl)carbamoyl) thiazole-5-sulfonimidamide]"

# Same assay, conditions: hTHP-1 assay containing 2% fetal bovine serum, Table B2, class symbols; read-out: IC50
row,Structure (SMILES),IC50 [nM]
1,"CC(C)(O)c1ccc(S(N)(=O)=NC(=O)Nc2c3c(c(C#N)c4c2CCC4)CCC3)cn1 (single isomer, unassigned) [Example 545, (R) or (S)-N′-((8-cyano-1,2,3,5,6,7-hexahydro-s-indacen-4-yl)carbamoyl)-6-(2-hydroxypropan-2-yl)pyridine-3-sulfonimidamide]",40 to 200
2,"NS(=O)(=NC(=O)Nc1c2c(cc3c1CC3)CCC2)c1cnn2c1OCCC2 (single isomer, unassigned) [Example 546, (R) or (S)-N′-((2,4,5,6-tetrahydro-1H-cyclobuta[f]inden-3-yl)carbamoyl)-6,7-dihydio-5H-pyrazolo[5,1-b][1,3]oxazine-3-suIfonimidamide]",200 to 1000
3,"NS(=O)(=NC(=O)Nc1c2c(cc3c1CC3)CCC2)c1cnn2c1OCCC2 (single isomer, unassigned) [Example 547, (S) or (R)-N′-((2,4,5,6-tetrahydro-1H-cyclobuta[f]inden-3-yl)carbamoyl)-6,7-dihydio-5H-pyrazolo[5,1-b][1,3]oxazine-3-sulfonimidamide]",1000 to 5000
4,"CC(C)n1nc(S(N)(=O)=NC(=O)Nc2c3c(c(C#N)c4c2CCC4)CCC3)cc1CO (single isomer, unassigned) [Example 548, (R) or (S)-N′-((8-cyano-1,2,3,5,6,7-hexahydro-s-indacen-4-yl)carbamoyl)-5-(hydroxymethyl)-1-isopropyl-1H-pyrazole-3-sulfonimidamide]",40 to 200
5,"CC(C)n1nc(S(N)(=O)=NC(=O)Nc2c3c(c(C#N)c4c2CCC4)CCC3)cc1CO (single isomer, unassigned) [Example 549, (S) or (R)-N′-((8-cyano-1,2,3,5,6,7-hexahydro-s-indacen-4-yl)carbamoyl)-5-(hydroxymethyl)-1-isopropyl-1H-pyrazole-3-sulfonimidamide]",5000 to 30000
6,"CC(C)(O)c1cc(S(N)(=O)=NC(=O)Nc2c3c(cc4c2CCC4)CCC3)sc1-c1ccccc1 (single isomer, unassigned) [Example 552, (R) or (S)-N′-((1,2,3,5,6,7-hexahydro-s-indacen-4-yl)(2-4-carbamoyl)-hydroxypropan-2-yl)-5-phenylthiophene-2-sulfonimidamide]",40 to 200
7,"CC(C)(O)c1cc(S(N)(=O)=NC(=O)Nc2c3c(cc4c2CCC4)CCC3)sc1-c1ccccc1 (single isomer, unassigned) [Example 553, (S) or (R)-N′-((1,2,3,5,6,7-hexahydro-s-indacen-4-yl)carbamoyl)-(4-2-hydroxypropan-2-yl)-5-phenylthiophene-2-sulfonimidamide]",5000 to 30000
8,"CC(C)c1cc(S(N)(=O)=NC(=O)Nc2c3c(cc4c2CCC4)CCC3)c(F)cn1 (single isomer, unassigned) [Example 554, (S) or (R)-5-fluoro-N′-((1,2,3,5,6,7-hexahydro-s-indacen-4-yl)carbamoyl)-2-isopropylpyridine-4-sulfonimidamide]",5000 to 30000
9,"CC(C)c1cc(S(N)(=O)=NC(=O)Nc2c3c(cc4c2CCC4)CCC3)c(F)cn1 (single isomer, unassigned) [Example 555, (R) or (S)-5-fluoro-N′-((1,2,3,5,6,7-hexahydro-s-indacen-4-yl)carbamoyl)-2-isopropylpyridine-4-sulfonimidamide]",200 to 1000
10,"CC(C)(O)c1nc(S(N)(=O)=NC(=O)Nc2c3c(cc4c2CCC4)CCC3)cs1 (single isomer, unassigned) [Example 556, (S) or (R)-N′-((1,2,3,5,6,7-hexahydro-s-indacen-4-yl)carbamoyl)-2-(2-hydroxypropan-2-yl)thiazole-4-sulfonimidamide]",5000 to 30000

# The remaining lines, values ahead:
row,IC50 [nM],Structure (SMILES)
1,40 to 200,"CC(C)(O)c1nc(S(N)(=O)=NC(=O)Nc2c3c(cc4c2CCC4)CCC3)cs1 (single isomer, unassigned) [Example 557, (R) or (S)-N′-((1,2,3,5,6,7-hexahydro-s-indacen-4-yl)cartoamoyl)-2-(2-hydroxypropan-2-yl)thiazole-4-sulfoni midamide]"
2,40 to 200,"CN1CCc2cc(S(N)(=O)=NC(=O)Nc3c4c(cc5c3CCC5)CCC4)sc2C1 (single isomer, unassigned) [Example 558, (R) or (S)-N′-((1,2,3,5,6,7-hexahydro-5-indacen-4-yl)carbamoyl)-6-methyl-4,5,6,7-tetrahydrothieno [2,3-c]pyridine-2-sulfonimidamide]"
3,1000 to 5000,"CN1CCc2cc(S(N)(=O)=NC(=O)Nc3c4c(cc5c3CCC5)CCC4)sc2C1 (single isomer, unassigned) [Example 559, (S) or (R)-N′-((1,2,3,5,6,7-hexahydro-s-indacen-4-yl)carbamoyl)-6-methyl-4,5,6,7-tetrahydrothieno[2,3-c]pyridine-2-sulfonimidamide]"
4,8 to 40,"CC(C)(O)c1csc(S(N)(=O)=NC(=O)Nc2c3c(cc4c2CC4)CCC3)c1 (single isomer, unassigned) [Example 560, (R) or (S)-4-(2-hydroxypropan-2-N′-((2,4,5,6-tetrahydro-1H-cyclobuta[f]inden-3 - y])carbamoyl) thiophene-2-sulfonimidamide]"
5,200 to 1000,"CC(C)(O)c1csc(S(N)(=O)=NC(=O)Nc2c3c(cc4c2CC4)CCC3)c1 (single isomer, unassigned) [Example 561, (S) or (R)-4-(2-hydroxypropan-2-N′-((2,4,5,6-tetrahydro-1H-cyclobuta[f]inden-3 - y])carbamoyl) thiophene-2-sulfonimidamide]"
6,1000 to 5000,"Cc1c(C2CC2)cc2c(c1NC(=O)N=S(N)(=O)c1cnc(C(C)(C)O)s1)CCC2 (single isomer, unassigned) [Example 562, (S) or (R)-N′-((6-cyclopropyl-5-methyl-2,3-dihydro-1H-inden-4-yl)carbamoyl)-2-(2-hydroxypropan-2-yl)thiazole-5-sulfonimidamide]"
7,40 to 200,"Cc1c(C2CC2)cc2c(c1NC(=O)N=S(N)(=O)c1cnc(C(C)(C)O)s1)CCC2 (single isomer, unassigned) [Example 563, (R) or (S)-N′-((6-cyclopropyl-5-methyl-2,3-dihydro-1H-inden-4-yl)carbamoyl)-2-(2-hydroxypropan-2-yl)thiazole-5-sulfonimidamide]"
8,1000 to 5000,"C=CCc1c2c(c(NC(=O)N=S(N)(=O)c3cc(C(C)(C)O)n(-c4ccccc4)n3)c3c1CCC3)CCC2 (single isomer, unassigned) [Example 566, (R) or (S)-N′-((8-allyl-1,2,3,5,6,7-hexahydro-s-indacen-4-yl)carbamoyl)-5-(2-hydroxypropan-2-yl)-1-phenyl-1H-pyrazole-3-sulfonimidaimde]"
9,5000 to 30000,"C=CCc1c2c(c(NC(=O)N=S(N)(=O)c3cc(C(C)(C)O)n(-c4ccccc4)n3)c3c1CCC3)CCC2 (single isomer, unassigned) [Example 567, (S) or (R)-N′-((8-allyl-1,2,3,5,6,7-hexahydro-s-indacen-4-yl)carbamoyl)-5-(2-hydroxypropan-2-yl)-1-phenyl-1H-pyrazole-3-sulfonimidaimde]"
10,5000 to 30000,"NS(=O)(=NC(=O)Nc1c2c(cc3c1CCC3)CCC2)c1cnn2c1OCCC2 (single isomer, unassigned) [Example 568, (S) or (R)-N′-((1,2,3,5,6,7-hexahydro-s-indacen-4-yl)carbamoyl)-6,7-dihydro-5H-pyrazolo[5,1-b][1,3]oxazine-3-sulfonimidamide]"
11,40 to 200,"NS(=O)(=NC(=O)Nc1c2c(cc3c1CCC3)CCC2)c1cnn2c1OCCC2 (single isomer, unassigned) [Example 569, (R) or (S)-N′-((1,2,3,5,6,7-hexahydro-s-indacen-4-yl)caramoyl)-6,7-dihydro-5H-pyrazolo[5,1 - b][1,3]oxazine-3-sulfonimidamide]"
12,8 to 40,"CNCc1cc(F)c(S(N)(=O)=NC(=O)Nc2c3c(cc4c2CCC4)CCC3)s1 (single isomer, unassigned) [Example 570, (R) or (S)-3-fluoro-N′-((1,2,3,5,6,7-hcxahydro-s-indacen-4-yl)carbamoyl)-5-((methylamino)methyl) thiophene-2-sulfonimidamide]"
13,200 to 1000,"CNCc1cc(F)c(S(N)(=O)=NC(=O)Nc2c3c(cc4c2CCC4)CCC3)s1 (single isomer, unassigned) [Example 571, (S) or (R)-3-fluoro-N′-((1,2,3,5,6,7-hcxahydro-s-indacen-4-yl)carbamoyl)-5-((methylamino)methyl) thiophene-2-sulfonimidamide]"
